Test results taken from patent US6080738A, “Heterocyclic amide compounds and medicinal uses thereof” (Yoshitomi Pharmaceuticals Industries, Ltd., priority 1996, dated 2000).

target: T1, human heart chymase (Homo sapiens, UniProt P23946); test: Inhibitory activity on amidase activity of human heart chymase; assay type: biochemical; conditions: 5 nM chymase; substrate succinyl-alanyl-alanyl-prolyl-phenylalanine-p-nitroanilide 2.5 mM; Tris-HCl (100 mM)-KCl (2 M), pH 7.5
T1 sequence (P23946 22-247): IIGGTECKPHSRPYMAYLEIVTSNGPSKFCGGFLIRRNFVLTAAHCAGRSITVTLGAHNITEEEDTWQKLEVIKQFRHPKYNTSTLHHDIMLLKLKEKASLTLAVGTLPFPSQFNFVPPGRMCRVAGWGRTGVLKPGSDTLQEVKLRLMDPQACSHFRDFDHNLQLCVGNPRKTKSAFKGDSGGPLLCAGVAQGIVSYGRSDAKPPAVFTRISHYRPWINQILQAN
Experimental: The effectiveness of the inhibitory activity of compound (I) and compound (XXVI) of the present invention was evaluated based on the inhibitory activity on amidase activity of human heart chymase, which was determined as in the following.
The inhibitory activity was quantitatively determined through variation in fractional residual activity of the enzyme caused by the inventive compound in defined serial concentration (<×1, <×10, <×100-fold equivalents) relative to 5 nM chymase in the presence of synthetic substrate, succinyl-alanyl-alanyl-prolyl-phenylalanine-p-nitroanilide (final concentration 2.5 mM). The inhibitory effect was analyzed by least square regression of Easson-Stedman plot (Proc. Roy. Soc. B. 1936, 121, p. 141) utilizing bimolecular equilibrium reaction linearization formula. The inhibitory activity was evaluated by the apparent inhibitory constant (Kiapp) obtained by this analysis and inhibitory constant (Ki) calculated from final substrate concentration in the reaction mixture and Km values separately determined. With regard to the quantlitative determination of initial rate of the enzyme reaction, the amount of p-nitroaniline produced by hydrolysis of the substrate was spectrophotometrically detected in terms of an increased absorbance which was obtained by subtracting absorbance at 650 nm wavelength from the absorbance at 405 nm. The chymase inhibitory activity of the compound of the present invention was calculated as ratio of residual activity in the presence of inhibitor relative to enzyme activity in the absence of inhibitor, and incorporation of the determination values was completed at a level less than initial rate guarantee absorbance at a concentration of the substrate used for the enzyme, after which analysis was performed.
The reaction mixture consisted of a buffer (pH 7.5, 140 μl) of Tris-HCl (100 mM) - KCl (2 M), the inventive compound dissolved in 20 μl of 10% dimethyl sulfoxide (DMSO), substrate dissolved in 20 μl of DMSO, and 20 μl of chymase, thus amounting to 200 μl in total.
Starting with the absorbance immediately after addition of the enzyme, increases in absorbance were recorded as a progressive curve taken precisely at equal time intervals.
From the above data, the difference between absorbances at completion of the reaction and immediately after addition was used to quantitatively determine the residual activity of the sample added with the inhibitor relative to a control wherein the inhibitor was not added. Alternatively, reaction rates of the control and the sample added with the inhibitor were calculated for certain time period (≥20 min) with successive shift (every 10 to 30 minutes) of the period, and the residual activity ratio was quantitatively determined and analyzed from the respective reaction rates averaged through the entire reaction time.

Ki [nM] | SMILES
6 | COC(=O)c1ccc2oc(C(=O)C(Cc3ccccc3)NC(=O)Cn3c(-c4cccc(N)c4)ncc(N)c3=O)nc2c1 (centres unmarked) [Example 93, 2-[5-amino-2-(3-aminophenyl)-6-oxo-1,6-dihydro-1-pyrimidinyl]-N-[1-[[5-(methoxycarbonyl)benzoxazol-2-yl]carbonyl]-2-phenylethyl]acetamide]
45 | CCOC(=O)c1ccc2oc(C(=O)C(Cc3ccccc3)NC(=O)Cn3c(-c4cccnc4)ncc(N)c3=O)nc2c1 (centres unmarked) [Example 64, 2-[5-amino-6-oxo-2-(3-pyridyl)-1,6-dihydro-1-pyrimidinyl]-N-[1-[[5-(ethoxycarbonyl)benzoxazol-2yl]carbonyl]-2-phenylethyl]acetamide]
2 | CCOC(=O)c1ccc2oc(C(=O)C(Cc3ccccc3)NC(=O)Cn3c(-c4ccccc4)ncc(N)c3=O)nc2c1 (centres unmarked) [Example 44]
16 | CN(C)C(=O)c1ccc2oc(C(=O)C(Cc3ccccc3)NC(=O)Cn3c(-c4ccc(F)cc4)ncc(NC(=O)OCc4ccccc4)c3=O)nc2c1 (centres unmarked) [Example 31, 2-[5-benzyloxycarbonylamino-2-(4-fluorophenyl)-6-oxo-1,6-dihydro-1-pyrimidinyl]-N-[1-[[5-(dimethylaminocarbonyl)benzoxazol-2yl)carbonyl]-2-phenylethyl]acetamide]
59 | COC(=O)c1ccc2oc(C(=O)C(Cc3ccccc3)NC(=O)Cn3c(-c4ccncc4)ncc(NC(=O)OCc4ccccc4)c3=O)nc2c1 (centres unmarked) [Example 73, 2-[5-benzyloxycarbonylamino-6-oxo-2-(4-pyridyl)-1,6-dihydro-1-pyrimidinyl]-N-[1-[[5-(methoxycarbonyl)benzoxazol-2-yl]carbonyl]-2-phenylethyl]acetamide]
130 | Nc1cnc(-c2ccc(F)cc2)n(CC(=O)NC(Cc2ccccc2)C(=O)c2nc3cc(NS(=O)(=O)C(F)(F)F)ccc3o2)c1=O (centres unmarked) [Example 17, 2-[5-amino-2-(4-fluorophenyl)-6-oxo-1,6-dihydro-1-pyrimidinyl]-N-[1-[[5-(trifluoromethanesulfonylamino)benzoxazol-2-yl]carbonyl]-2-phenylethyl]acetamide]
56 | COC(=O)c1ccc2nc(C(=O)C(Cc3ccccc3)NC(=O)Cn3c(-c4ccc(F)cc4)ncc(N)c3=O)oc2c1 (centres unmarked) [Example 7, 2-[5-amino-2-(4-fluorophenyl)-6-oxo-1,6-dihydro-1-pyrimidinyl]-N-[1-[[6-(methoxycarbonyl)benzoxazol-2-yl]carbonyl]-2-phenylethyl]acetamide]
183 | Nc1ccc2oc(C(=O)C(Cc3ccccc3)NC(=O)Cn3c(-c4ccc(F)cc4)ncc(N)c3=O)nc2c1 (centres unmarked) [Example 15, 2-[5-amino-2-(4-fluorophenyl)-6-oxo-1,6-dihydro-1-pyrimidinyl]-N-[1-[(5-aminobenzoxazol-2-yl)carbonyl]-2-phenylethyl]acetamide]
74 | Nc1cnc(-c2cccnc2)n(CC(=O)NC(Cc2ccccc2)C(=O)c2nc3ncccc3o2)c1=O (centres unmarked) [Example 72, 2-[5-amino-6-oxo-2-(3-pyridyl)-1,6-dihydro-1-pyrimidinyl]-N-[1-[(oxazolo[4,5-b]pyridin-2-yl)carbonyl]-2-phenylethyl]acetamide]
1840 | O=CC(Cc1ccccc1)NC(=O)Cn1c(-c2ccc(F)cc2)ncc(NC(=O)OCc2ccccc2)c1=O (centres unmarked) [Example 9, 2-[5-benzyloxycarbonylamino-2-(4-fluorophenyl)-6-oxo-1,6-dihydro-1-pyrimidinyl]-N-(1-formyl-2-phenylethyl)acetamide]
66 | Cc1cccc(-c2ncc(NC(=O)OCc3ccccc3)c(=O)n2CC(=O)NC(Cc2ccccc2)C(=O)c2nc3cc(C(N)=O)ccc3o2)c1 (centres unmarked) [Example 53, 2-[5-benzyloxycarbonylamino-6-oxo-2-(m-tolyl)-1,6-dihydro-1-pyrimidinyl]-N-[1-[(5-carbamoylbenzoxazol-2-yl)carbonyl]-2-phenylethyl]acetamide]
93 | Nc1cnc(-c2ccc(F)cc2)n(CC(=O)NC(Cc2ccccc2)C(=O)c2nc3cc(F)ccc3o2)c1=O (centres unmarked) [Example 26, 2-[5-amino-2-(4-fluorophenyl)-6-oxo-1,6-dihydro-1-pyrimidinyl]-N-[1-[(5-fluorobenzoxazol-2-yl)carbonyl]-2-phenylethyl]acetamide]
59 | CCNC(=O)c1ccc2oc(C(=O)C(Cc3ccccc3)NC(=O)Cn3c(-c4cccc(C)c4)ncc(NC(=O)OCc4ccccc4)c3=O)nc2c1 (centres unmarked) [Example 55, 2-[5-benzyloxycarbonylamino-6-oxo-2-(m-tolyl)-1,6-dihydro-1-pyrimidinyl]-N-[1-[[5-(ethylaminocarbonyl)benzoxazol-2-yl]carbonyl]-2-phenylethyl]acetamid]
48 | O=C(Cn1c(-c2ccc(F)cc2)ncc(NC(=O)OCc2ccccc2)c1=O)NC(Cc1ccccc1)C(=O)C1=NCCO1 (centres unmarked) [Example 23, 2-[5-benzyloxycarbonylamino-2-(4-fluorophenyl)-6-oxo-1,6-dihydro-1-pyrimidinyl]-N-[1-[(2-oxazolinyl)carbonyl]-2-phenylethyl]acetamide]
58 | CC(=O)Nc1cnc(-c2ccc(F)cc2)n(CC(=O)NC(Cc2ccccc2)C(=O)c2nc3ccccc3o2)c1=O (centres unmarked) [Example 94, 2-[5-acetamide-2-(4-fluorophenyl)-6-oxo-1,6-dihydro-1-pyrimidinyl]-N-[1-[(benzoxazol-2-yl)carbonyl]-2-phenylethyl]acetamide]
1300 | COC(=O)c1ccc2oc(C(=O)C(Cc3ccccc3)NC(=O)Cn3c(-c4ccc(F)cc4)ncc(NC(=O)OCc4ccccc4)c3=O)nc2c1 (centres unmarked) [Example 3, 2-[5-benzyloxycarbonylamino-2-(4-fluorophenyl)-6-oxo-1,6-dihydro-1-pyrimidinyl]-N-[1-[[5-(methoxycarbonyl)benzoxazol-2-yl]carbonyl]-2-phenylethyl]acetamide]
12 | CCN(CC)C(=O)c1ccc2oc(C(=O)C(Cc3ccccc3)NC(=O)Cn3c(-c4cccc(C)c4)ncc(N)c3=O)nc2c1 (centres unmarked) [Example 58, 2-[5-amino-6-oxo-2-(m-tolyl)-1,6-dihydro-1-pyrimidinyl]-N-[1-[[5-(diethylaminocarbonyl)benzoxazol-2-yl]carbonyl]-2-phenylethyl]acetamide]
76 | Nc1cnc(-c2ccc(F)cc2)n(CC(=O)NC(Cc2ccccc2)C(=O)c2nc3cc(C(=O)O)ccc3o2)c1=O (centres unmarked) [Example 5, 2-[5-amino-2-(4-fluorophenyl)-6-oxo-1,6-dihydro-1-pyrimidinyl]-N-[1-[(5-carboxylbenzoxazol-2-yl)carbonyl]-2-phenylethyl]acetamide]
990 | Nc1cnc(-c2ccc(F)cc2)n(CC(=O)NC(Cc2ccc(F)cc2)C(=O)c2nc3ccccc3o2)c1=O (centres unmarked) [Example 40, 2-[5-amino-2-(4-fluorophenyl)-6-oxo-1,6-dihydro-1-pyrimidinyl]-N-[1-[(benzoxazol-2-yl)carbonyl]-2-(4-fluorophenyl)ethyl]acetamide]
111 | O=C(Cn1c(-c2ccc(F)cc2)ncc(NC(=O)OCc2ccccc2)c1=O)NC(Cc1ccccc1)C(=O)c1nccs1 (centres unmarked) [Example 21, 2-[5-benzyloxycarbonylamino-2-(4-fluorophenyl)-6-oxo-1,6-dihydro-1-pyrimidinyl]-N-[2-phenyl-1-[(2-thiazolyl)carbonyl]ethyl]acetamide]
5 | COC(=O)c1ccc2oc(C(=O)C(Cc3ccccc3)NC(=O)Cn3c(-c4cccc(OC)c4)ncc(N)c3=O)nc2c1 (centres unmarked) [Example 88, 2-[5-amino-2-(3-methoxyphenyl)-6-oxo-1,6-dihydro-1-pyrimidinyl]-N-[1-[[5-(methoxycarbonyl)benzoxazol-2-yl]carbonyl]-2-phenylethyl]acetamide]
24 | O=C(Cn1c(-c2ccccc2)ncc(NC(=O)OCc2ccccc2)c1=O)NC(Cc1ccccc1)C(=O)c1nc2ncccc2o1 (centres unmarked) [Example 45, 2-(5-benzyloxycarbonylamino-6-oxo-2-phenyl-1,6-dihydro-1-pyrimidinyl)-N-[1-[(oxazolo[4,5-b]pyridin-2-yl)carbonyl]-2-phenylethyl]acetamide]
42 | COC(=O)c1ccc2oc(C(=O)C(Cc3ccccc3)NC(=O)Cn3c(-c4cccc([N+](=O)[O-])c4)ncc(N)c3=O)nc2c1 (centres unmarked) [Example 80, 2-[5-amino-2-(3-nitrophenyl)-6-oxo-1,6-dihydro-1-pyrimidinyl]-N-[1-[[5-(methoxycarbonyl)benzoxazol-2-yl]carbonyl]-2-phenylethyl]acetamide]
